Source: patent publication US8778966B2, “Quinolinone derivatives as PARP and tank inhibitors” (Janssen Pharmaceutica, NV, priority 2007, dated 2014)
Like-named read-outs stand apart in the source and are kept apart here.

What was measured:
PC-3 cells = test: Antiproliferative activity, Alamar Blue assay, PC-3 cells; format: cell-based, human; conditions: Homo sapiens, PC-3, PC3 cells, read-out: PC3 antiproliferative activity pIC50 (converted)
How it was run: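 Resazurin-based fluorescence (540 nm ex/590 nm em) measured after 4-day compound treatment plus 24 hrs dye incubation at 37° C. Cells plated at 4.5×10^3 cells/ml, adhered 24 hr first. pIC50 from probit-derived IC50 on % viable cells versus untreated, triplicate wells.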

PC3 cells = test: EB1 Comet (microtubule disruption) assay; format: cell-based, human; conditions: Homo sapiens, read-out: EB1 pLAC (converted)
How it was run: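 Readout is loss of Eb1 plus-end foci, scored by immunofluorescence microscopy, in PC3 cells after 1 h compound treatment at 37 °C with 0.6% final DMSO. LAC is defined as the lowest concentration leaving at least 50% of cells without Eb1 foci.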

tubulin = test: Tubulin polymerization assay; format: biochemical; parameters: key: a compound showing 0 to 50% inhibition at 20 μM is reported as score 1; Score 2 compounds are defined as compound showing more than 50% inhibition at 20 μM and less than 50% inhibition at 5 μM; a compound showing more than 50% inhibition at 5 μM is reported as score 3; conditions: tested at 20 μM and 5 μM
How it was run: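 Cytoskeleton kit tubulin was run in a 10 µl final volume at 37 °C, with fluorescence read every minute for 1 h. Polymerization was taken as the maximum slope (4-point linear regression) and expressed as % of no-compound control. Compounds were tested at 20 µM, then at 5 µM if inhibition exceeded 50%, and scored by % inhibition.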

IC50 (PC-3 cells)	melting point	IC50 (PC-3 cells; Alamar Blue)	Compound	minimal effective concentration (PC3 cells; PC-3, 1 h, 1 hour treatment)	tubulin polymerisation score (tubulin)	minimal effective concentration (PC3 cells; PC-3, 1 hour treatment)
> 10000 nM	162 °C		CCc1cc2ccc([C@](C)(C#N)Cc3ccccc3)cc2[nH]c1=O (single isomer, unassigned) [Compound 45]	> 10 µM		
398 nM	177 °C		CCc1cc2ccc([C@@](C)(C#N)Cc3ccccc3)cc2[nH]c1=O (single isomer, unassigned) [Compound 46]	0.1 µM	2	
	178 °C	7940 nM	CCc1cc2ccc([C@](C)(C#N)Cc3nc(OC)cc(OC)n3)cc2[nH]c1=O (single isomer, unassigned) [Compound 52]	3.16 µM	1 (a compound showing 0 to 50% inhibition at 20 μM is reported as score 1)	
	163 °C	39.8 nM	CCc1cc2ccc([C@@](C)(C#N)Cc3nc(OC)cc(OC)n3)cc2[nH]c1=O (single isomer, unassigned) [Compound 53]	0.0316 µM	3 (a compound showing more than 50% inhibition at 5 μM is reported as score 3)	
631 nM	122 °C		CCc1cc2ccc(C(C)(C#N)Cc3cccc(COC)c3)cc2[nH]c1=O (stereo not shown) [Compound 8]	0.316 µM		
631 nM	182 °C		CCc1cc2ccc(C(C)(C#N)Cc3cccc(CO)c3)cc2[nH]c1=O (stereo not shown) [Compound 9]	1 µM		
631 nM	190 °C		CCc1cc2ccc(C(C)(C#N)Cc3c(F)ccc(C)c3F)cc2[nH]c1=O (stereo not shown) [Compound 41]	0.316 µM		
316 nM	220 °C		CCc1cc2ccc(C(C)(C#N)Cc3nnsc3Cl)cc2[nH]c1=O (stereo not shown) [Compound 42]	0.1 µM	1 (a compound showing 0 to 50% inhibition at 20 μM is reported as score 1)	
158 nM	186 °C		CCc1cc2ccc(C(C)(C#N)Cc3cccc(Br)c3)cc2[nH]c1=O (stereo not shown) [Compound 49]	0.316 µM		
200 nM	192 °C		CCc1cc2ccc(C(C)(C#N)Cc3cccc(C#N)c3)cc2[nH]c1=O (stereo not shown) [Compound 51]	0.316 µM		
794 nM	216 °C		CCc1cc2ccc(C(C)(C#N)CCOc3ccc([N+](=O)[O-])cc3)cc2[nH]c1=O (stereo not shown) [Compound 54]	0.316 µM		
	> 260 °C	10000 nM	Cc1cc2ccc(C(C)(C#N)Cc3cc4ccccc4[nH]3)cc2[nH]c1=O (stereo not shown) [Compound 234]	> 10 µM		

Compound	IC50 (PC-3 cells)	melting point	IC50 (PC-3 cells; Alamar Blue)	minimal effective concentration (PC3 cells; PC-3, 1 h, 1 hour treatment)	tubulin polymerisation score (tubulin)	minimal effective concentration (PC3 cells; PC-3, 1 hour treatment)
CCc1cc2ccc(C(C)(C#N)Cc3cccc(C#C[Si](C)(C)C)c3)cc2[nH]c1=O (stereo not shown) [Compound 1]		178 °C	631 nM	1 µM		
CCOP(=O)(OCC)c1cccc(CC(C)(C#N)c2ccc3cc(CC)c(=O)[nH]c3c2)c1 (stereo not shown) [Compound 50]	794 nM	80 °C				0.316 µM
